Data from paper PMC7395068, “The evolution of strategies to minimise the risk of human drug-induced liver injury (DILI) in drug discovery and development” (Archives of Toxicology, 2020).
Like-named read-outs stand apart in the source and are kept apart here.

How the values were obtained:
human hepatocytes = conditions: cited from earlier work
Upcyte human hepatocytes = conditions: In vitro Assay; ref Tolosa 2019; cited from earlier work
[1] = read-out: Human plasma Cmax; total plasma Cmax.tot, median of 9 literature references; cited from earlier work
hLiMTs [2] = experiment: Combined HCI (HCS) and cellular ATP 3D assay in hLiMTs
hLiMTs [3] = conditions: cited from earlier work
[4] = tested on: isolated mouse liver mitochondria; conditions: In vitro Assay; ref Porceddu 2012; cited from earlier work
[5] = cited from earlier work
[6] = tested on: THLE or HepG2 cells, isolated mitochondria, BSEP; conditions: cited from earlier work
[7] = plasma free fraction; cited from earlier work
rBsep = conditions: In vitro Assay; ref Dawson 2012; cited from earlier work
HepaRG spheroids = experiment: Combined HCI (HCS) and cellular ATP 3D assay in HepaRG spheroids
HepG2 cells [8] = conditions: cited from earlier work
[9] = tested on: HepG2 cells, primary human hepatocytes; conditions: In vitro Assay; ref Garside 2014; cited from earlier work
[10] = Plasma free fraction (fu) and unbound Cmax (Cmax,u); format: in vitro ADME, human; conditions: unbound plasma Cmax
Method: The prediction of DILI severity was evaluated further using the 3D combined HCI assays using plasma-free fraction. The majority of fu values were obtained from literature, when unavailable in-house prediction was utilised. Unbound plasma Cmax concentrations (Cmax,u) were derived by multiplying total plasma Cmax with the corresponding free fraction (fu) for each compound.

[11] = tested on: THLE-Null and THLE-3A4 cells; conditions: In vitro Assay; ref Gustafsson 2014; cited from earlier work
HepG2 cells [12] = conditions: cited from earlier work; remark: listed apart in the source
PHH = conditions: cited from earlier work
[13] = cited from earlier work; remark: listed apart in the source
[14] = Microtissue model structural based (HCI), combined HCS and ATP, MEC < 25 × Cmax.tot cut-off
[15] = In vitro Assay, ref Proctor 2017
[16] = Modeled in vitro assays (cytotoxicity, mitochondrial dysfunction, BSEP), ref Aleo et al. 2019
[17] = In vitro Assay, ref Persson 2013

SMILES: [H]/N=C(/N)N[C@H]1[C@H](O)[C@@H](O)[C@H](O[C@@H]2O[C@@H](C)[C@](O)(C=O)[C@H]2O[C@@H]2O[C@@H](CO)[C@H](O)[C@@H](O)[C@@H]2NC)[C@@H](N/C(N)=N\[H])[C@@H]1O [streptomycin, reference compound]
- Structural based (HCI) (human hepatocytes; In vitro Assay, ref Xu 2008): -VE
- DILI in vitro assay prediction, Xu (2008) (human hepatocytes; Structural based (HCI), human hepatocytes, ref Xu et al. 2008): -VE
- Upcytes multi donor assay 14day data (Upcyte human hepatocytes): -VE
- Cmax [1]: 64.5 µM
- AC50 (hLiMTs [2]; Homo sapiens, read-out: ATP endpoint AC50): 1960 µM
- minimal effective concentration (hLiMTs [2]; Homo sapiens, read-out: ATP endpoint MEC): 1700 µM
- DILI prediction hLiMTs (HCS-MEC) (hLiMTs [2]; [14]): -VE
- hLiMTs <25x Avg Cmax ATP (hLiMTs [2]; hLiMTs, ATP endpoint, cut-off <25x Avg Cmax): -ve
- hLiMTs <100x Avg Cmaxu ATP (hLiMTs [2]; hLiMTs, ATP endpoint, cut-off <100x Avg Cmaxu): +ve (<100x Avg Cmaxu)
- hLiMTs <25x Avg Cmax HCS (hLiMTs [2]; hLiMTs, HCS endpoints, cut-off <25x Avg Cmax): -ve
- hLiMTs <100x Avg Cmaxu HCS (hLiMTs [2]; hLiMTs, HCS endpoints, cut-off <100x Avg Cmaxu): -ve
- hLiMTs <25x Avg Cmax All (hLiMTs [2]; hLiMTs, all endpoints (ATP and HCS), cut-off <25x Avg Cmax): -ve
- hLiMTs Cmax max All (hLiMTs [2]; hLiMTs, all endpoints, Cmax max used): -ve
- hLiMTs Cmax min All (hLiMTs [2]; hLiMTs, all endpoints, Cmax min used): -ve
- hLiMTs <10 uM All (hLiMTs [2]; hLiMTs, all endpoints, cut-off <10 uM): -ve
- hLiMTs <100x Avg Cmaxu All (hLiMTs [2]; hLiMTs, all endpoints, cut-off <100x Avg Cmaxu): +ve (<100x Avg Cmaxu)
- hLiMTs ATP <100uM (hLiMTs [3]; [15]): -VE
- hLiMTs/100xCmax, Proctor (2017) (hLiMTs [3]; hLiMTs, ATP, IC50 < 100 × Cmax.tot, ref Proctor et al. 2017): -VE
- hLiMTs/100uM, Proctor (2017) (hLiMTs [3]; hLiMTs, ATP, IC50 threshold 100 µM, ref Proctor et al. 2017): -VE
- in vitro data EC2<=1x Cmax [4]: +VE
- in vitro data EC20<=2uM [4]: -VE
- DILI severity category (Chen et al. [2016]) ([5]; LTKB DILIrank category, ref Chen et al. 2016): No
- DILI severity category (Chen 2016) ([5]; human DILI classification, LTKB DILIrank, ref Chen et al. 2016): No
- DILI severity category ([5]; human DILI severity, ref Chen et al.): No
- DILI +VE (5-8), DILI -VE (-4) ([5]; ref Chen 2016): -VE
- DILI severity category ([5]; ref Chen 2016): vNo-DILI-Concern
- Partition Hybrid HRM Score ([6]; In vitro Assay, ref Aleo 2019): -VE
- Ro2 Hybrid HRM Score ([6]; In vitro Assay, ref Aleo 2019): -VE
- Partition Hybrid HRM Score ≥4, Aleo (2019) [6, 16]: -VE
- Partition Hybrid HRM Score ≥8, Aleo (2019) [6, 16]: -VE
- Rule of Two hybrid HRM Score ≥3, Aleo (2019) [6, 16]: -VE
- Rule of Two hybrid HRM Score ≥8, Aleo (2019) [6, 16]: -VE
- fu [7]: 0.650
- Inhibition of rBsep cutoff<1& cmax u>.2 (rBsep): -VE
- Inhibition of rBsep cutoff<3 (rBsep): -VE
- HepaRG <25x Avg Cmax ATP (HepaRG spheroids; HepaRG, ATP endpoint, cut-off <25x Avg Cmax): -ve
- HepaRG <100x Avg Cmaxu ATP (HepaRG spheroids; HepaRG, ATP endpoint, cut-off <100x Avg Cmaxu): +ve (<100x Avg Cmaxu)
- HepaRG <25x Avg Cmax HCS (HepaRG spheroids; HepaRG, HCS endpoints, cut-off <25x Avg Cmax): -ve
- HepaRG <100x Avg Cmaxu HCS (HepaRG spheroids; HepaRG, HCS endpoints, cut-off <100x Avg Cmaxu): +ve (<100x Avg Cmaxu)
- HepaRG <25x Avg Cmax All (HepaRG spheroids; HepaRG, all endpoints (ATP and HCS), cut-off <25x Avg Cmax): -ve
- HepaRG Cmax max All (HepaRG spheroids; HepaRG, all endpoints, Cmax max used): -ve
- HepaRG Cmax min All (HepaRG spheroids; HepaRG, all endpoints, Cmax min used): -ve
- HepaRG <10 uM All (HepaRG spheroids; HepaRG, all endpoints, cut-off <10 uM): -ve
- HepaRG <100x Avg Cmaxu All (HepaRG spheroids; HepaRG, all endpoints, cut-off <100x Avg Cmaxu): +ve (<100x Avg Cmaxu)
- AC50 (HepaRG spheroids; Homo sapiens, HepaRG, read-out: ATP endpoint AC50): 3650 µM
- minimal effective concentration (HepaRG spheroids; Homo sapiens, HepaRG, read-out: ATP endpoint MEC): 2830 µM
- minimal effective concentration (HepaRG spheroids; Homo sapiens, HepaRG, read-out: HCS endpoint MEC): 3140 µM
- DILI prediction HepaRG spheroids (HCS-MEC) (HepaRG spheroids; [14]): -VE
- Structural based (HCI) (HepG2 cells [8]; In vitro Assay, ref O'Brien 2006): +VE
- DILI in vitro assay prediction, O'Brien (2006) (HepG2 cells [8]; Structural based (HCI), HepG2, ref O'Brien et al. 2006): +VE (lowest HCI endpoint IC50 (or in the absence of dose–response < 100 µM) < 30 × total human plasma exposure levels (Cmax.tot))
- Cluster 1-6 +VE Assay [9]: -VE
- Human plasma Cmax,u [10]: 41.912 µM
- THLE-Null [11]: -VE
- THLE-Null/3A4 [11]: -VE
- Cluser analysis (HepG2 cells [12]; [17]): -VE
- Structural based (HCI) (HepG2 cells [12]; [17]): -VE
- DILI in vitro assay prediction, Persson (2013) (HepG2 cells [12]; Structural based (HCI), HepG2, ref Persson et al. 2013): -VE
- PHH/100xCmax, Proctor (2017) (PHH; 2D PHH, ATP, IC50 < 100 × Cmax.tot, ref Proctor et al. 2017): -VE
- PHH/100uM, Proctor (2017) (PHH; 2D PHH, ATP, IC50 threshold 100 µM, ref Proctor et al. 2017): -VE
- PHH ATP <100uM (PHH; [15]): -VE
- Assigned DILI category ([13]; Chen et al. 2016 or literature alignment, ref Chen et al. 2016): 1
- In vivo DILI ([13]; ref Aleo 2019): -VE
- In vivo DILI ([13]; ref Dawson 2012): -VE
- In vivo DILI ([13]; ref Garside 2014): -VE
- In vivo DILI ([13]; ref Gustafsson 2014): -VE
- In vivo DILI ([13]; ref O'Brien 2006): -VE
- In vivo DILI ([13]; ref Persson 2013): -VE
- In vivo DILI ([13]; ref Porceddu 2012): +VE
- In vivo DILI ([13]; ref Proctor 2017): -VE
- In vivo DILI ([13]; ref Tolosa 2019): -VE
- In vivo DILI ([13]; ref Xu 2008): -VE
